Assay results published in patent publication US20060142315A1, “Substituted biaryl piperazinyl-pyridine analogues” (priority 2003, published 2006).
Like-named read-outs stand apart in the source and are kept apart here.

Assays:
[1] = molecular target: T1, T. gondii (Tg) dihydrofolate reductase (Toxoplasma gondii, UniProt Q07422); type: biochemical
[2] = molecular target: M. avium (Ma) dihydrofolate reductase (Mycobacterium avium, UniProt O30463); test: biochemical
[3] = molecular target: T2, rat liver DHFR (Rattus norvegicus, UniProt Q920D2); test: Standardized spectrophotometric DHFR inhibition assay, rat liver enzyme; type: biochemical
T2 construct: rat liver DHFR; from tissue; host or cells: rat liver
T2 sequence (Q920D2 1-187): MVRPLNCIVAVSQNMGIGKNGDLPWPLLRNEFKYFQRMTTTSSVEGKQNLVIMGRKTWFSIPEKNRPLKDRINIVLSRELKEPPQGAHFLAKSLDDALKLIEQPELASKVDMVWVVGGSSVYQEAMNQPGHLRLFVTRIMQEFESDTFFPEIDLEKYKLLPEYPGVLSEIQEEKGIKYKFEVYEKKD

[4] = molecular target: P. carinii (Pc) dihydrofolate reductase (Pneumocystis carinii, UniProt P16184); test: Standardized spectrophotometric DHFR inhibition assay, P. carinii enzyme; type: biochemical; conditions: for IC50: Pc DHFR
P. carinii (Pc) dihydrofolate reductase, sequence (P16184 whole entry): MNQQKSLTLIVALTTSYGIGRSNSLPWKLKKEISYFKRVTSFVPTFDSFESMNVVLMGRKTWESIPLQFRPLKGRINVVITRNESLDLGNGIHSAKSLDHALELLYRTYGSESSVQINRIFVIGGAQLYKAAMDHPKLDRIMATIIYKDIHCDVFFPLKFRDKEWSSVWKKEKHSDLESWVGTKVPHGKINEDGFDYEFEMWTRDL

[5] = molecular target: T1, T. gondii (Tg) dihydrofolate reductase; conditions: cited from earlier work; for IC50: read-out: IC50 against Tg DHFR
[6] = relative to rat liver DHFR, 95% confidence limits in parentheses

M. avium (Ma) dihydrofolate reductase, sequence (O30463 1-181): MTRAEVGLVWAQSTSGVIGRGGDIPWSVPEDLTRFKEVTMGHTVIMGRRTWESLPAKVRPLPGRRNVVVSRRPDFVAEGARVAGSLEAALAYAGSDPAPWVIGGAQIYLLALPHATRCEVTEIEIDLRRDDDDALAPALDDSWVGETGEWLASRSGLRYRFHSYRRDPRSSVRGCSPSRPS
T1 sequence (Q07422 whole entry): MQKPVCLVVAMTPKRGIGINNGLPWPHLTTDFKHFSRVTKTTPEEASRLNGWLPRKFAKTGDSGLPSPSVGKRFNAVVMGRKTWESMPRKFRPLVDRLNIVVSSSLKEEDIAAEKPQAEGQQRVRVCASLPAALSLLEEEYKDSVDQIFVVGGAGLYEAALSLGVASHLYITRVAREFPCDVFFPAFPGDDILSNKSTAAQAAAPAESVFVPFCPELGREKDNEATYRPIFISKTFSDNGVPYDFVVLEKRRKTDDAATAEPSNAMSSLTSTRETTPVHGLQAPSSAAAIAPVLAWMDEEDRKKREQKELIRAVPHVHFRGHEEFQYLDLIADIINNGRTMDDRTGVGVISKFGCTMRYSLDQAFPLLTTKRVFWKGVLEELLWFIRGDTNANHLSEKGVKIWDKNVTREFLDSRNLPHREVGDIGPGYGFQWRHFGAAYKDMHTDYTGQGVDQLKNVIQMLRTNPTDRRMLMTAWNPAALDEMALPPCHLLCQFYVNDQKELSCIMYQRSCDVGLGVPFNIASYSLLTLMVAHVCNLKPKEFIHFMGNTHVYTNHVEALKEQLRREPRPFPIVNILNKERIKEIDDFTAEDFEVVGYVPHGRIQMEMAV

SMILES	IC50 [1]	IC50 ([2]; Ma DHFR)	IC50 ([1]; Tg DHFR)	IC50 [3]	IC50 [4]	IC50 [2]	also measured
COc1ccc(OCCCCC(=O)O)cc1Cc1cnc(N)nc1N [Compound 1b, reference compound]	0.11 µM	0.058 µM	–	–	–	–	–
COc1ccc(C#CCCC(=O)O)cc1Cc1cnc(N)nc1N [Compound 2]	–	–	0.097 µM	–	–	–	–
COc1ccc(C#CCCCC(=O)O)cc1Cc1cnc(N)nc1N [Compound 3]	0.032 µM	0.007 µM	–	2.2 µM	0.028 µM	–	melting point: 121 to 124 °C
COc1ccc(C#CCCCCC(=O)O)cc1Cc1cnc(N)nc1N [Compound 4]	0.072 µM	–	–	25 µM	0.87 µM	0.041 µM	melting point: 187 to 189 °C
COc1ccc(CCCCC(=O)O)cc1Cc1cnc(N)nc1N [Compound 5]	–	0.035 µM	0.058 µM	3.2 µM	0.15 µM	–	melting point: 134 to 137 °C
COc1ccc(CCCCCC(=O)O)cc1Cc1cnc(N)nc1N [Compound 6]	–	0.016 µM	0.0084 µM	4.1 µM	0.15 µM	–	–
COc1ccc(CCCCCCC(=O)O)cc1Cc1cnc(N)nc1N [Compound 7]	0.03 µM	–	–	4.6 µM	0.53 µM	0.089 µM	–
COc1ccc(OCc2cccc(C(=O)O)c2)cc1Cc1cnc(N)nc1N [Compound 8, 2,4-Diamino-5-[2′-methoxy-5′-(3″-carboxybenzyloxy)benzyl]pyrimidine]	0.6 µM	–	–	19 µM	0.89 µM	0.12 µM	–
COc1ccc(OCc2ccc(C(=O)O)cc2)cc1Cc1cnc(N)nc1N [Compound 9, 2,4-Diamino-5-(2′-methoxy-5′-(4″-carboxybenzyloxy)benzyl]pyrimidine]	–	0.06 µM	2 µM	21 µM	–	–	–
COc1ccc(C#CCOc2ccccc2C(=O)O)cc1Cc1cnc(N)nc1N [Compound 10, 2,4-Diamino-5-[2′-methoxy-5′-[3-(2″-carboxyphenoxy)propyn-1-yl]benzyl]pyrimidine]	–	–	0.5 µM	6.2 µM	2.3 µM	0.036 µM	Selectivity Index (SI) T. gondii [1, 6]: 13 (9.3-17); Selectivity Index (SI) M. avium [2]: 170 (130-230); Selectivity Index (SI) P. carinii [4, 6]: 2.7 (2.1-3.5)
COc1ccc(C#CCOc2cccc(C(=O)O)c2)cc1Cc1cnc(N)nc1N [Compound 11, 2,4-Diamino-5-[2′-methoxy-5′-[3-(3″-carboxyphenoxy)-1-propynyl]benzyl]pyrimidine]	1.6 µM	–	–	14 µM	5.6 µM	0.057 µM	–
CCc1nc(N)nc(N)c1-c1ccc(Cl)c(N=NN2CCOCC2)c1 [Compound 37]	–	–	–	–	–	–	SI against Tg DHFR [5]: 37: R^1R^2 = morpholino (IC50 = 0.19 μM, SI = 140)^18; IC50 [5]: 0.19 µM
CCc1nc(N)nc(N)c1-c1ccc(Cl)c(N=NN(C)C)c1 [Compound 38]	–	–	–	–	–	–	IC50 ([5]; literature compounds of Table 2, standardized assay conditions): 0.31 µM; SI against Tg DHFR ([5]; literature compounds of Table 2, Tg versus rat DHFR): 61
Nc1nc(N)c2nc(CN3c4ccccc4C=Cc4ccccc43)cnc2n1 [Compound 40]	–	–	–	–	–	–	SI against Tg DHFR [5]: 40: R = N-Dibenz[b,f]azepinyl (IC50 = 0.043 μM, SI = 102)^3g
COc1cc(Cc2cnc(N)nc2N)cc(C#CCCCC(=O)O)c1OC [Compound 49, 2,4-Diamino-5-[3′,4′-dimethoxy-5′-(5-carboxy-1-pentynyl)benzyl]-pyrimidine]	–	–	–	5000 µM	0.001 µM	0.0024 µM	–
